Several values for one entry are separate records, joined by “and”; a condition that tells them apart may be missing. Identical values can stand only once. Entries after “also recorded” stand apart in the source; their conditions may differ.
Assays:
DPP8 = biological target: T1, DPP8 (Homo sapiens, UniProt Q6V1X1); assay: biochemical; format: biochemical; conditions: for IC50: GP-AMC 250 µM, 10 nM enzyme, 45 min pre-incubation at 30 °C, read-out: IC50 DPP8
T1 construct: purchased Proteros Biostructures GmbH, Germany
Method: (§1) Enzyme activity of DPP4, DPP8, DPP9 (Proteros Biostructures GmbH, Germany) and PREP (Sigma Aldrich, USA) was determined by measuring the initial velocity of AMC release from the fluorogenic substrate GP-AMC (Sigma Aldrich, USA) using a Tecan Spark® 10 M multimode microplate reader (Tecan Group Ltd., Switzerland) in activity buffer (20 mM HEPES/KOH pH 7.3, 110 mM potassium acetate, 2 mM Mg acetate, 0.5 mM EGTA, 0.02% Tween 20, supplemented with 1 mM DTT) and a final volume of 20 μL for maximal 60 min at 30 °C. Prior to activity measurement, 10 nM enzyme was incubated for 45 min at 30 °C and gentle shaking with the inhibitor compounds in concentrations ranging from 0 to 100 μM. The compounds were dissolved in DMSO and diluted in activity buffer (final DMSO concentration: 1%). […] IC50 values were calculated using Graph-Pad Prism v10.2.3 using the equation: [Inhibitor] vs. response—Variable slope (four parameters). All measurements were performed in triplicates and error bars represent standard errors of the fit.

[1] = biological target: T2, DPP9-BRCA2 interaction in HeLa wild-type cells (Homo sapiens, UniProt Q86TI2); assay: Proximity ligation assay (PLA) of MMC-induced DPP9-BRCA2 interaction; format: cell-based; conditions: for 95% confidence interval of difference: compound vs. +Ctrl., Unpaired two-sided t-test
T2 construct: endogenous in cells; host or cells: HeLa wild-type (HeLa Flp-In T-REx WT)
Method: HeLa wild-type cells were cultured as described above. Cells were seeded on coverslips in 24‐well plates (Greiner, Germany) at a concentration of 2 × 10^4 cells per well (37 °C and 5% CO2). To induce a DPP9-BRCA2 interaction, 300 nM MMC was added to the cells 8 h after seeding and for a total incubation time of 24 h. Indicated Inhibitors (10 µM) were added 1 h prior to cell fixation. Cells were fixed with 4% formaldehyde in PBS for 10 min and permeabilized with 0.2% Triton‐X‐100 in PBS for 5 min. The proximity ligation assay (PLA) was performed using the Duolink in situ PLA Kit (Sigma Aldrich, USA). Briefly, cells were washed with PBS and blocked with Duolink Blocking solution for 60 min at 37 °C. […] Antibody control coverslips were treated with only one primary antibody to estimate background staining in each experiment. Coverslips were washed and treated with PLA reagents according to the manufacturers protocol. Cells were mounted in DAKO with DAPI fluorescent mounting medium and analyzed using an LSM 710 confocal microscope, 63x NA 1.4 oil immersion objective (Zeiss, Germany). Images were processed using Zen black v2.3 (Zeiss, Germany) and subsequently analyzed using the Duolink ImageTool Setup 1.0.1.2 (Sigma Aldrich, USA).

HeLa wild-type cells [2] = assay: Cell viability assay (MTT), inhibitor alone; format: cell-based
Method: (§2) HeLa wild-type (HeLa Flp-In T-REx WT, kind gift from Prof. Matthias Hentze) and HeLa DPP9^KO cells (prepared in-house) were cultured in DMEM (ThermoFisher, USA) supplemented with 10% FBS (PAN Biotech, Germany), 2 mM L-Glutamin (ThermoFisher, USA) and 1% Penicillin/Streptomycin (100 U mL^−1 Penicillin and 100 µg mL^−1 Streptomycin, ThermoFisher, USA). Cells were seeded in 96-well flat-bottom cell culture plates (Greiner, Germany) at a concentration of 5 × 10^3 cells per well (37 °C and 5% CO2). The indicated concentration of Mitomycin C (MMC, Merck) was added to the cells 24 h after seeding, together with 10 µM of the indicated inhibitor. The inhibitors were refreshed every 24 h. Control cells were treated with DMSO.
(§3) Cell viability was measured 72 hours after the MMC treatment. For this, the medium was removed and replaced with phenol-red free DMEM (ThermoFisher, USA) containing 0.5 mg mL^−1 MTT (Sigma Aldrich, USA). Cells were incubated for 30 min at 37 °C, 5% CO2. Subsequently, the medium was removed and replaced by DMSO. The plates were shaken on an orbital shaker for 20 min before measuring the MTT signal on a CARIOstar Plus microplate reader (BMT labtech, Germany). Each experiment was performed three times, each in triplicates.

HeLa wild-type cells [3] = assay: Cell viability assay (MTT), co-treatment with Mitomycin C; format: cell-based
Method: as §2, §3

DPP9 = DPP9 (Homo sapiens, UniProt Q86TI2); assay: biochemical; format: biochemical; set-up: purchased Proteros Biostructures GmbH, Germany; conditions: for IC50: GP-AMC 250 µM, 10 nM enzyme, 45 min pre-incubation at 30 °C, read-out: IC50 DPP9
Method: as §1

T1 sequence (Q6V1X1 whole entry): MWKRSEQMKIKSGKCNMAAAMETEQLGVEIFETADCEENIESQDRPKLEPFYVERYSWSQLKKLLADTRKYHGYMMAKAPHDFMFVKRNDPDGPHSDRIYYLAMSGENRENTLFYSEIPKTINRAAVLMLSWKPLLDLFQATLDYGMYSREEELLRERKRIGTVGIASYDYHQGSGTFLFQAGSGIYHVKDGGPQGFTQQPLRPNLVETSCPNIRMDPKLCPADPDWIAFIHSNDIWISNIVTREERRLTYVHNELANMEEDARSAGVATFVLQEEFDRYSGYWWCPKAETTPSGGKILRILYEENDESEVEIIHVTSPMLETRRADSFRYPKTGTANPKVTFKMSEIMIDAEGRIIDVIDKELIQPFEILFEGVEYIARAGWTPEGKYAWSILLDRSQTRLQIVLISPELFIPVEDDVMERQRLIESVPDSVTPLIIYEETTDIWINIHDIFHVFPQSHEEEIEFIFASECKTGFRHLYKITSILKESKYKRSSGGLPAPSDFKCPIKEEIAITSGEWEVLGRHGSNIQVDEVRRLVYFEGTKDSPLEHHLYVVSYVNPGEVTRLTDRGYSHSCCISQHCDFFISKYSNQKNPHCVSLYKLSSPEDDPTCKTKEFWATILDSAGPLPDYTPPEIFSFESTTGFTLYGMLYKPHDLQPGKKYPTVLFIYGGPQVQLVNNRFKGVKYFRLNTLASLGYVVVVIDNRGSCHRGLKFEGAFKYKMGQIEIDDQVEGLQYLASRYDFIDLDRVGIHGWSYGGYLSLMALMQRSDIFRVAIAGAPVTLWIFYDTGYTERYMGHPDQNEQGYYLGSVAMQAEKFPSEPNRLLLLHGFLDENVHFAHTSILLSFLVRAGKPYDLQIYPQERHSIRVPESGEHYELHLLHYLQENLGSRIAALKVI
DPP9, sequence (Q86TI2 whole entry): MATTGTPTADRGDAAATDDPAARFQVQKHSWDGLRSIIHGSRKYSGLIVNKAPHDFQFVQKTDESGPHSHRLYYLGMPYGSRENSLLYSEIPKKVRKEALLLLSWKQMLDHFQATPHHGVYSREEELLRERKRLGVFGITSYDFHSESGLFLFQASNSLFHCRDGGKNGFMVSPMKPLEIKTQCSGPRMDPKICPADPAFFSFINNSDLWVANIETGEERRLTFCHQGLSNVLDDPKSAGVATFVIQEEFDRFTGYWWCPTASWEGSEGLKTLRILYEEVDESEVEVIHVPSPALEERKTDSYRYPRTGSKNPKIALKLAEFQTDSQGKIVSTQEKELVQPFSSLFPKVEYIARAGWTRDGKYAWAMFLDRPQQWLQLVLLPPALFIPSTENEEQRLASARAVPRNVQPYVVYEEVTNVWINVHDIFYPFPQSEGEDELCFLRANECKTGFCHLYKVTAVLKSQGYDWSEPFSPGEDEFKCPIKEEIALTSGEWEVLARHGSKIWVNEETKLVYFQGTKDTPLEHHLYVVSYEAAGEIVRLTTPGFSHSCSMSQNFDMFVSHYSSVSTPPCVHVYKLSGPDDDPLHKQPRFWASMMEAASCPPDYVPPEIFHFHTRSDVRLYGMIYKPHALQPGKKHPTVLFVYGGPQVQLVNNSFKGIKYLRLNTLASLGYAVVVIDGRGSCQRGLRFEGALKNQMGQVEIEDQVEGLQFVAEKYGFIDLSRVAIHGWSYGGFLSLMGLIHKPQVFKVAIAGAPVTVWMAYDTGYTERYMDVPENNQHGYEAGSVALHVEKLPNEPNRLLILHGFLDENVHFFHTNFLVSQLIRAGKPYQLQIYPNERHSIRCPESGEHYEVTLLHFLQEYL
T2 sequence (Q86TI2 whole entry): as above

## N[C@@H](CC(=O)N1CCN(C(c2ccc(F)cc2)c2ccc(F)cc2)CC1)C(=O)N1Cc2ccccc2C1 [1G244, reference compound]
DPP8
  IC50: 0.0044 ± 0.0015 µM
DPP8; c 1.6 nM
  DPP8 activity [%]: 91.0893% and 98.7118% and 100.309%
DPP8; c 3.1 nM
  DPP8 activity [%]: 71.9188% and 85.2033% and 73.5988%
DPP8; c 6.3 nM
  DPP8 activity [%]: 45.4307% and 54.9695% and 54.3535%
DPP8; c 25 nM
  DPP8 activity [%]: 12.8362% and 14.9584% and 14.076%
DPP8; c 50 nM
  DPP8 activity [%]: 6.548% and 6.987% and 5.844%
DPP8; c 100 nM
  DPP8 activity [%]: 2.369% and 3.267% and 3.933%
[1]; Figure 5c
  95% confidence interval of difference: -77,49 to -58,50
[1]; Figure S10a replicate 1
  95% confidence interval of difference: -64,34 to -33,22
[1]; Figure S10a replicate 2
  95% confidence interval of difference: -102,2 to -69,11
[1]; Figure S10a replicate 3
  95% confidence interval of difference: -86,10 to -55,17
[1]; HeLa wild-type, 300 nM MMC 24 h, 10 µM inhibitor
  effect on MMC-induced DPP9-BRCA2 PLA events: fewer MMC-induced PLA events
HeLa wild-type cells [2]; 0 µM MMC, individual replicate values (Supplementary Figure 11a)
  Cell viability normalized to mock treated cells + 0 µM MMC: 47.738% and 64.0147% and 69.6676% and 64.7998% and 59.8364% and 62.7117% and 63.5049% and 78.6659% and 67.3863%
HeLa wild-type cells [2]; Figure 5d S11a, Ctrl. [-MMC] vs. compound [-MMC], Tukey's multiple comparisons test
  95% confidence interval of difference: 26,96 to 48,16
HeLa wild-type cells [2]; HeLa wild-type, 10 µM, 72 h
  effect on cell viability without MMC: reduced cell viability
HeLa wild-type cells [3]; +MMC co-treatment, individual replicate values (Supplementary Figure 11b)
  cell viability normalized for each condition seperately to corresponsing [-MMC +inhibitor] control: 65.3963% and 56.5004% and 50.0376% and 54.1195% and 51.2842% and 44.9012% and 47.541% and 41.8131% and 48.7041%
HeLa wild-type cells [3]; Figure 5d S11a, + Ctrl. [+MMC] vs. compound [+MMC], Tukey's multiple comparisons test
  95% confidence interval of difference: 21,97 to 43,17
HeLa wild-type cells [3]; Figure S11b, Ctrl. vs. compound, Uncorrected Fisher's LSD
  95% confidence interval of difference: 6,539 to 20,16
HeLa wild-type cells [3]; HeLa wild-type, 1 µM MMC + 10 µM inhibitor, 72 h
  effect on cell viability / sensitivity to MMC: increases the sensitivity of; also recorded: significantly reduced cell viability
DPP9
  IC50: 0.014 ± 0.002 µM
DPP9; c 1.6 nM
  DPP9 activity [%]: 98.3651% and 97.0319% and 99.1099%
DPP9; c 3.1 nM
  DPP9 activity [%]: 86.8432% and 92.2931% and 89.5294%
DPP9; c 6.3 nM
  DPP9 activity [%]: 74.2081% and 76.5022% and 75.3461%
DPP9; c 25 nM
  DPP9 activity [%]: 35.0531% and 41.6358% and 39.7574%
DPP9; c 50 nM
  DPP9 activity [%]: 22.1104% and 25.58% and 23.0144%
DPP9; c 100 nM
  DPP9 activity [%]: 13.084% and 15.2109% and 15.2279%

## NC1CCCN(P(N)(=O)NS(=O)(=O)O)C1=O (stereo not shown) [WTC0260B]
DPP8
  IC50: 27.9 µM
DPP9
  IC50: 6.26 µM

Reference: publication PMC11968843, “Sulphostin-inspired N-phosphonopiperidones as selective covalent DPP8 and DPP9 inhibitors” (Nature Communications, 2025)
